Reference: ChEMBL document CHEMBL5518176, “Identification of novel aminopyrimidine derivatives for the treatment of mutant NSCLC” (Eur J Med Chem, 2024)
The source made the active and inactive calls. No cut-off for these calls is given here.

Tests used:
NCI-H1975 [1] = test: Antiproliferative activity against human NCI-H1975 cells harboring EGFR L858R/T790M double mutant assessed as inhibition of cell growth incubated for 72 hrs by MTT assay; type: functional, cell-based; settings: NCI-H1975, 72 h
BaF3 [2] = test: Antiproliferative activity against mouse BaF3 cells harboring EGFR L858R/T790M/C797S triple mutant assessed as inhibition of cell growth incubated for 72 hrs by CellTiter-Glo luminescent assay; type: functional, cell-based; settings: BaF3, 72 h
BaF3 [3] = test: Antiproliferative activity against mouse BaF3 cells harboring EGFR Del19/T790M/C797S triple mutant assessed as inhibition of cell growth incubated for 72 hrs by CellTiter-Glo luminescent assay; type: functional, cell-based; settings: BaF3, 72 h
A549 = test: Antiproliferative activity against human A549 cells assessed as inhibition of cell growth incubated for 72 hrs by MTT assay; type: functional, cell-based; settings: A549, 72 h
NCI-H1975 [4] = test: Antiproliferative activity against human NCI-H1975 cells harboring EGFR L858R/T790M/C797S triple mutant assessed as inhibition of cell growth incubated for 72 hrs by CellTiter-Glo luminescent assay; type: functional, cell-based; settings: NCI-H1975, 72 h
NCI-H1975 [5] = test: Induction of apoptosis in human NCI-H1975 cells harboring EGFR L858R/T790M/C797S triple mutant assessed as late apoptotic cells at 0.4 uM incubated for 48 hrs by Annexin V-FITC/PI staining based flow cytometric analysis (reference value: 0.89 %); type: functional
NCI-H1975 [6] = test: Induction of apoptosis in human NCI-H1975 cells harboring EGFR L858R/T790M/C797S triple mutant assessed as early apoptotic cells at 1.5 uM incubated for 48 hrs by Annexin V-FITC/PI staining based flow cytometric analysis (reference value: 0.39 %); type: functional
NCI-H1975 [7] = test: Induction of apoptosis in human NCI-H1975 cells harboring EGFR L858R/T790M/C797S triple mutant assessed as necrotic cells at 0.8 uM incubated for 48 hrs by Annexin V-FITC/PI staining based flow cytometric analysis (reference value: 0.42 %); type: functional
NCI-H1975 [8] = test: Induction of apoptosis in human NCI-H1975 cells harboring EGFR L858R/T790M/C797S triple mutant assessed as viable cells at 0.4 uM incubated for 48 hrs by Annexin V-FITC/PI staining based flow cytometric analysis (reference value: 98.3 %); type: functional; settings: read-out: Activity
NCI-H1975 [9] = test: Induction of apoptosis in human NCI-H1975 cells harboring EGFR L858R/T790M/C797S triple mutant assessed as late apoptotic cells at 0.8 uM incubated for 48 hrs by Annexin V-FITC/PI staining based flow cytometric analysis (reference value: 0.89 %); type: functional
NCI-H1975 [10] = test: Induction of apoptosis in human NCI-H1975 cells harboring EGFR L858R/T790M/C797S triple mutant assessed as early apoptotic cells at 0.4 uM incubated for 48 hrs by Annexin V-FITC/PI staining based flow cytometric analysis (reference value: 0.39 %); type: functional
BaF3 [11] = test: Antiproliferative activity against mouse BaF3 cells harboring wildtype EGFR assessed as inhibition of cell growth incubated for 72 hrs by CellTiter-Glo luminescent assay; type: functional, cell-based; settings: BaF3, 72 h
NCI-H1975 [12] = test: Induction of apoptosis in human NCI-H1975 cells harboring EGFR L858R/T790M/C797S triple mutant assessed as necrotic cells at 1.5 uM incubated for 48 hrs by Annexin V-FITC/PI staining based flow cytometric analysis (reference value: 0.42 %); type: functional
NCI-H1975 [13] = test: Induction of apoptosis in human NCI-H1975 cells harboring EGFR L858R/T790M/C797S triple mutant assessed as late apoptotic cells at 1.5 uM incubated for 48 hrs by Annexin V-FITC/PI staining based flow cytometric analysis (reference value: 0.89 %); type: functional
NCI-H1975 [14] = test: Induction of apoptosis in human NCI-H1975 cells harboring EGFR L858R/T790M/C797S triple mutant assessed as necrotic cells at 0.4 uM incubated for 48 hrs by Annexin V-FITC/PI staining based flow cytometric analysis (reference value: 0.42 %); type: functional
[15] = Antiproliferative activity against human BEAS-2B cells assessed as inhibition of cell growth; type: toxicity, cell-based
NCI-H1975 [16] = test: Induction of apoptosis in human NCI-H1975 cells harboring EGFR L858R/T790M/C797S triple mutant assessed as early apoptotic cells at 0.8 uM incubated for 48 hrs by Annexin V-FITC/PI staining based flow cytometric analysis (reference value: 0.39 %); type: functional
NCI-H1975 [17] = test: Induction of cell cycle arrest in human NCI-H1975 cells harboring EGFR L858R/T790M/C797S triple mutant at 0.4 to 1.5 uM incubated for 48 hrs by flow cytometric analysis; type: functional, cell-based; settings: dose 0.4-1.5 µM
NCI-H1975 [18] = test: Induction of apoptosis in human NCI-H1975 cells harboring EGFR L858R/T790M/C797S triple mutant assessed as viable cells at 0.8 uM incubated for 48 hrs by Annexin V-FITC/PI staining based flow cytometric analysis (reference value: 98.3 %); type: functional; settings: read-out: Activity
NCI-H1975 [19] = test: Induction of apoptosis in human NCI-H1975 cells harboring EGFR L858R/T790M/C797S triple mutant assessed as viable cells at 1.5 uM incubated for 48 hrs by Annexin V-FITC/PI staining based flow cytometric analysis (reference value: 98.3 %); type: functional; settings: read-out: Activity

| SMILES | IC50 (NCI-H1975 [1]) [nM] | IC50 (BaF3 [2]) [nM] | IC50 (BaF3 [3]) [nM] | IC50 (A549) [nM] | IC50 (NCI-H1975 [4]) [nM] | IC50 (BaF3 [11]) [nM] | other results |
| --- | --- | --- | --- | --- | --- | --- | --- |
| Nc1nccc(Nc2ccc(NC(=O)C(c3ccccc3)N3Cc4cc(-c5ccc(N6CCCCC6)cc5)ccc4C3=O)cc2)n1 (racemic) | > 20000 | 2080 | 2580 | > 20000 |  |  |  |
| Nc1nccc(Nc2ccc(NC(=O)C(c3ccccc3)N3Cc4cc(-c5ccc(N6CCNCC6)cc5)ccc4C3=O)cc2)n1 (configuration not stated) | 3200 | 970 | 690 | 530 | 1490 |  |  |
| O=C(Nc1ccc(Nc2ccncc2)cc1)C(c1ccccc1)N1Cc2cc(-c3ccc(N4CCNCC4)cc3)ccc2C1=O (configuration not stated) | 3820 | 1040 |  | 5200 | 2700 |  |  |
| Cc1nccc(Nc2ccc(NC(=O)C(c3ccccc3)N3Cc4cc(-c5ccc(N6CCNCC6)cc5)ccc4C3=O)cc2)n1 (configuration not stated) | 4750 | 930 |  | 3970 | 2690 |  |  |
| CN1CCN(c2ccc(-c3ccc4c(c3)CN([C@@H](C(=O)Nc3ccc(Nc5ccnc(N)n5)cc3)c3ccccc3)C4=O)cc2)CC1 | 2950 | 420 | 410 | 5140 | 820 | 410 | Activity (NCI-H1975 [5]): 1.64%; Activity (NCI-H1975 [6]): 1.83%; Activity (NCI-H1975 [7]): 0.69%; viability at 0.4 µM (NCI-H1975 [8]): 97.3%; Activity (NCI-H1975 [9]): 11.16%; Activity (NCI-H1975 [10]): 0.59%; Activity (NCI-H1975 [12]): 0.73%; Activity (NCI-H1975 [13]): 12.15%; Activity (NCI-H1975 [14]): 0.51%; IC50 [15]: 5120 nM; Activity (NCI-H1975 [16]): 1.45%; Activity (NCI-H1975 [17]): inactive; viability at 0.8 µM (NCI-H1975 [18]): 86.7%; viability at 1.5 µM (NCI-H1975 [19]): 85.3% |
| Nc1nccc(Nc2ccc(NC(=O)C(c3ccccc3)N3Cc4cc(-c5ccc(N6CCOCC6)cc5)ccc4C3=O)cc2)n1 (racemic) | > 20000 | 1960 | 1960 | > 20000 |  |  |  |
| C=CC(=O)Nc1cc(Nc2nccc(-c3cn(C)c4ccccc34)n2)c(OC)cc1N(C)CCN(C)C [OSIMERTINIB] | […] | 1120 | 750 | […] | […] | 9 |  |
| COc1nccc(Nc2ccc(NC(=O)C(c3ccccc3)N3Cc4cc(-c5ccc(N6CCNCC6)cc5)ccc4C3=O)cc2)n1 (configuration not stated) | 3600 | 480 |  | 4880 | 2650 |  |  |
| CN1CCN(c2ccc(-c3ccc4c(c3)CN([C@H](C(=O)Nc3ccc(Nc5ccnc(N)n5)cc3)c3ccccc3)C4=O)cc2)CC1 | 2820 | 720 | 750 | 7180 | 1640 | 450 |  |
| CN1CCN(c2ccc(-c3ccc4c(c3)CN(C(C(=O)Nc3ccc(Nc5ccnc(N)n5)cc3)c3ccccc3)C4=O)cc2)CC1 (racemic) |  | 690 | 620 | 12200 | 1650 | 1500 |  |
| Nc1cc(Nc2ccc(NC(=O)C(c3ccccc3)N3Cc4ccccc4C3=O)cc2)ncn1 (configuration not stated) | > 20000 | > 10000 | > 10000 | > 20000 | > 10000 |  |  |
